Laboratory results published in patent US20090023744A1, “COMBINATION THERAPY FOR DEPRESSION” (The General Hospital Corporation, priority 2007, published 2009).
“Also recorded” adds a separate entry of the source.

Columns and labels:
[1] = test system: major depressive disorder (MDD); test: Clinical case report: treatment of recurrent MDD with buspirone and bupropion; format: in vivo, human; settings: same patient remaining on bupropion 150 SR q.d. alone
Excerpt: A person with a history of recurrent episodes of MDD presented with a recurrence of their MDD in the context of their having been off antidepressant medications. […] At the time of the initiation of this treatment combination, the patient reported depressed mood, irritability, decreased sleep and appetite, and fatigue, as well as reduced interest.

[2] = molecular target: T1, 5-HT2C receptor (Homo sapiens, UniProt P28335); settings: reference [2]; cited from earlier work
T1 sequence (P28335 33-458): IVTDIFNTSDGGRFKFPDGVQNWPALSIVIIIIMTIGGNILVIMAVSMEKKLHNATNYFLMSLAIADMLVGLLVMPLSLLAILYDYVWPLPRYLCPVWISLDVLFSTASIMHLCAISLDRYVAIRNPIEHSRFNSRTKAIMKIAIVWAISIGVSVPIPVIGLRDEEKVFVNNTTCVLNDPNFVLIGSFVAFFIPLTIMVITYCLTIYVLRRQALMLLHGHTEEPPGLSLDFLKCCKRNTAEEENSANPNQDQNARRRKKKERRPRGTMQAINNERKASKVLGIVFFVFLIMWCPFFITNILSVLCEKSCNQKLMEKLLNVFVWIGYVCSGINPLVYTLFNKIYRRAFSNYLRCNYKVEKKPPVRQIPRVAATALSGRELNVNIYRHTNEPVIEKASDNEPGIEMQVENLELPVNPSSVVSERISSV

[3] = molecular target: T1, 5-HT2C receptor; settings: reference [2]; cited from earlier work; remark: listed apart in the source

Row | Compound | depressive symptoms after discontinuation of buspirone [1] | insomnia after discontinuation of buspirone [1] | 5-HT2C receptor antagonist activity [2] | affinity for 5-HT2C receptors [3]
1 | CC(NC(C)(C)C)C(=O)c1cccc(Cl)c1 (racemic) [bupropion, (±)-1-(3-chlorophenyl)-2-[(1,1-dimethylethyl)amino]-1-propanone] | depressive symptoms quickly returned; also recorded: not sufficient to lead to antidepressant response | improvement of their insomnia |  | 
2 | O=C1CC2(CCCC2)CC(=O)N1CCCCN1CCN(c2ncccn2)CC1 [buspirone, 8-[4-[4-(2-pyrimidinyl)-1-piperazinyl)butyl)-8-azaspiro[4,5]decane-7,9-dione] |  |  | weak | low affinity
